These results are taken from patent US5338849A, “Azaindoles, preparation processes and medicinal products containing them” (Lipha, Lyonnaise Industrielle Pharmaceutique, priority 1992, dated 1994).

In one experiment the target is T1, aortic ACAT (Oryctolagus cuniculus, UniProt A0A5F9CPP4).
T1 construct: the aorta is removed, dissected and homogenised in order to prepare the microsomal fraction by ultracentrifugation; from tissue; host or cells: aorta microsomes of cholesterol-fed male New Zealand rabbits
T1 sequence (A0A5F9CPP4 1-555): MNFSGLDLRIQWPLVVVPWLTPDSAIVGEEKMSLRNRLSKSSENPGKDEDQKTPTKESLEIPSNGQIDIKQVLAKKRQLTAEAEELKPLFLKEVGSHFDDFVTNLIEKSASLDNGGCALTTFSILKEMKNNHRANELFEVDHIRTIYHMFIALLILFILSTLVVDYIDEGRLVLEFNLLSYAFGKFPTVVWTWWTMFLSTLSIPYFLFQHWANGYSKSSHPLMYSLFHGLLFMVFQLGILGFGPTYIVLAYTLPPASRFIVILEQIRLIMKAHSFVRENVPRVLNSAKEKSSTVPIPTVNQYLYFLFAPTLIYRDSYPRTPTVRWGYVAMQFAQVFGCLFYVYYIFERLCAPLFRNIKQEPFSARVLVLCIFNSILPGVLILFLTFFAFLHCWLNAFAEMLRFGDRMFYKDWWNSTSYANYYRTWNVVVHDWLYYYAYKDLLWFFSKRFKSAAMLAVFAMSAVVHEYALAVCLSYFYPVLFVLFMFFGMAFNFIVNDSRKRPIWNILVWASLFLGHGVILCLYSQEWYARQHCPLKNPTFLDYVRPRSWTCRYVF
The experiment is described as follows: Test A: measurement of the inhibition of aortic ACAT in vitro in rabbits. Format: biochemical, male New Zealand rabbits. The following applies: rabbit aortic microsomes, [^14 C]oleoylcoenzyme A, read-out: 50% inhibitory concentration (IC50), concentration of compound which inhibits the ACAT activity by 50%. The procedure: Test A: measurement of the inhibition of aortic ACAT in vitro in rabbits; male New Zealand rabbits weighing between 2.2 and 2.5 kg, subjected beforehand for 15 days to a diet enriched with 1.25% of cholesterol, are sacrificed by cervical dislocation; the aorta is removed, dissected and homogenised in order to prepare the microsomal fraction by ultracentrifugation; these microsomes are incubated in the presence of [^14 C]oleoylcoenzyme A according to the method described by P. J. GILLIES et al., Exp. and Mol. Pathol., 1986, 44, 329-339; the lipids are extracted from the incubate with a methanol/chloroform mixture and the [^14 C]oleoylcholesterol is separated by TLC: the latter compound represents the measure of the ACAT activity, and the results are expressed in the form of a 50% inhibitory concentration (IC50), representing the concentration of compound which inhibits the ACAT activity by 50%.

In another experiment the test system is blood cholesterol level. The experiment is described as follows: Test B: measurement of the hypocholesterolaemic effect in rodents. Format: in vivo, male Wistar rats. The following applies: Rattus norvegicus; oral, cholesterol-fed rats (2.5% cholesterol, 8 days), 24 hours and 4 hours before sacrifice; read-out: 25% effective dose (ED25), quantity of compound which lowers the blood cholesterol level by 25%. The protocol: Test B: measurement of the hypocholesterolaemic effect in rodents; male Wistar rats weighing 200-220 g are subjected to a diet enriched with 2.5% of cholesterol for 8 days; on the last two days, they are treated orally with the test product, 24 hours and 4 hours before being sacrificed by exsanguination: the blood cholesterol level is evaluated on an aliquot fraction of serum by an automated enzymatic method. The results are expressed in the form of a 25% effective dose (ED25) in mg per kg of animal body weight, which represents the quantity of compound which lowers the blood cholesterol level by 25%.

Experiment [1] deals with intestinal absorption of cholesterol. As to the kind of experiment: Test C: measurement of the inhibition of intestinal absorption of cholesterol in rats. The settings on record: Rattus norvegicus; oral, fasted rats, Triton WR-1339 i.v., [^3 H]cholesterol orally; read-out: 50% effective dose (ED50), quantity of compound which inhibits intestinal absorption of cholesterol by 50%. Format: in vivo, Wistar male rats. The protocol:
Test C: measurement of the inhibition of intestinal absorption of cholesterol in rats; Wistar male rats weighing 230-250 g, fasted for 24 hours, are treated simultaneously with the test product administered orally and with Triton WR-1339 administered i.v.; one hour later, they are treated again orally with [^3 H]cholesterol; three hours later, under ether anaesthesia, 1 ml of blood is withdrawn from their retro-orbital sinus: the blood radioactivity, evaluated on 0.1 ml of serum, represents the measure of the absorption of the [^3 H]cholesterol administered. The results are expressed in the form of a 50% effective dose (ED50) in mg per kg of animal body weight, which represents the quantity of compound which inhibits intestinal absorption of cholesterol by 50%.

For the compound `CC(C)c1cccc(C(C)C)c1NC(=O)NCC1(n2ccc3cccnc32)CCCC1` [compound no. 1, N^1-[1-(7-azaindol-1-yl)cyclopentylmethyl]-N^2-(2,6-diisopropylphenyl)urea], the IC50 on aortic ACAT amounted to 0.16 µM. Also, the ED25 in the experiment with blood cholesterol level is 0.202 mg/kg. In addition, in experiment [1], the ED50 was 0.056 mg/kg.
